# Experimental data: patent US12173026B2, “PRMT5 inhibitors” (Merck Sharp & Dohme LLC, priority 2018, dated 2024)
# System: symmetric dimethylation of arginine (SDMA) of PRMT5 substrates in MCF-7 cells
# Assay: PRMT5 Cell Target Engagement (TE) Assay
# Type: cell-based
# Conditions: Homo sapiens, MCF7, 72 h; MCF-7 cells treated for 3 days; nuclear SDMA by high content imaging; top concentration 10000 nM
# Text: PRMT5 Cell Target Engagement (TE) Assay
# The PRMT5 TE assay is a biomarker assay for identifying compounds that inhibit symmetric dimethylation of arginine (SDMA) of PRMT5 substrates. The following substrates have been reported for PRMT5: Histone H2A and H4 R3, Histone H3 R2, Histone 1-13 R8, spliceosome Sm proteins, ribosomal protein RPS10, p53, FEN1, nucleoplasmin, nucleolin, EGFR and EBNA. The assay will focus on detecting symnetrically dimethylated nuclear proteins using high content imaging technology. Detection of the expression of symmetrically dimethylated nuclear proteins is through a mixture of primary rabbit monoclonal antibodies to SDMA (CST 13222) which in turn recognized by an Alexafluor 488 dye-conjugated anti-rabbit IgG secondary antibody. The IN Cell Analyzer 2200 or Opera-Phenix measures nuclear Alexafluor 488 fluorescent dye intensity that is directly related to the level of expression of symmetrically dimethylated nuclear proteins at the single cell level. Nuclear AF488 dye intensities are compared to the mean value for DMSO treated cells (MIN) to report percent of inhibition for each compound-treated well.
# In this assay, the cell potency (EC50) of each compound was determined from a ten point (1:3 serial dilution; top compound concentration of 10000 nM) titration curve using the following outlined procedure. Each well of a BD falcon collagen coated black/clear bottom 384-well plate was seeded with 4000 MCF-7 cells in 30 pal media and allowed to attach for 5 hours. Media is ATCC-formulated Eagle's Minimum Essential Medium, Catalog No. 30-2003. The following components were added to the base medium: 0.01 mg/mL human recombinant insulin; fetal bovine serum to a final concentration of 10%. Additional 30 pal of media containing 2× compounds were added to each well. Cells were treated for 3 days in 37° C. CO2 incubator. On day 3, cells were fixed with Cytofix, permeabilized with 0.4% Triton-X-100/Cytofix, and washed with D-PBS without Ca/Mg. Cells were blocked with Licor Odessey blocking reagent for 1 hour at room temperature, followed by incubation with anti-SDMA (1:1000) antibody at 4° C. overnight. 1° antibody was removed, followed by three washings with DPBS without Ca/Mg and 0.05% Tween20. Hoechst (5 μg/mL), Cell Mask deep stain (1:2000) and Alexa488-conjugated goat anti-rabbit IgG (2 μg/mL) was added for 1 hour at room temperature. A final washing step (three washes) was performed before sealing plate for imaging on in Cell Analyzer 2200 or Opera-Phenix. Images from analyzer were uploaded to Columbus for image analysis. IC50 values were determined by 4 parameters robust fit of percent fluorescence units vs. (Log 10) compound concentrations.
row,EC50 [nM],Structure (SMILES)
1,2.5,"Cc1ncnc2c1ccn2[C@@H]1O[C@@H]2[C@H](Cc3ccc4cc(Cl)c(N)nc4c3)CC[C@]2(O)[C@H]1O [Example 122, (2R,3R,3aS,6S,6aR)-6-((2-amino-3-chloroquinolin-7-yl)methyl)-2-(4-methyl-7H-pyrrolo[2,3-d]pyrimidin-7-yl)hexahydro-3aH-cyclopenta[b]furan-3,3a-diol]"
2,1,"C[C@]12O[C@@H](n3ccc4c(N)ncnc43)[C@H](O)[C@@]1(O)CC[C@H]2Cc1ccc2cc(F)c(N)nc2c1 [Example 121, (2R,3R,3aS,6S,6aR)-6-((2-amino-3-fluoroquinolin-7-yl)methyl)-2-(4-amino-7H-pyrrolo[2,3-d]pyrimidin-7-yl)-6a-methylhexahydro-3aH-cyclopenta[b]furan-3,3a-diol]"
3,0.9,"Cc1cn([C@@H]2O[C@@H]3[C@H](Cc4ccc5cc(Cl)c(N)nc5c4)CC[C@]3(O)[C@H]2O)c2ncnc(N)c12 [Example 66, (2R,3R,3aS,6S,6aR)-6-((2-amino-3-chloroquinolin-7-yl)methyl)-2-(4-amino-5-methyl-7H-pyrrolo[2,3-d]pyrimidin-7-yl)hexahydro-3aH-cyclopenta[b]furan-3,3a-diol]"
4,1.2,"Nc1nc2cc(O[C@H]3CC[C@@]4(O)[C@@H]3O[C@@H](n3ccc5c(N)ncnc53)[C@@H]4O)ccc2cc1Br [Example 6, (2R,3R,3aS,6S,6aR)-6-((2-amino-3-bromoquinolin-7-yl)oxy)-2-(4-amino-7H-pyrrolo[2,3-d]pyrimidin-7-yl)hexahydro-2H-cyclopenta[b]furan-3,3a-diol]"
5,13.1,"Cc1ncnc2c1ccn2[C@@H]1O[C@@H]2[C@H](Cc3ccc4cc(F)c(N)nc4c3)CC[C@]2(O)[C@H]1O [Example 123, (2R,3R,3aS,6S,6aR)-6-((2-amino-3-fluoroquinolin-7-yl)methyl)-2-(4-methyl-7H-pyrrolo[2,3-d]pyrimidin-7-yl)hexahydro-3aH-cyclopenta[b]furan-3,3a-diol]"
6,42.2,"Cc1nc(C)c2ccn([C@@H]3O[C@@H]4[C@H](Cc5ccc6cc(F)c(N)nc6c5)CC[C@]4(O)[C@H]3O)c2n1 [Example 90, (2R,3R,3aS,6S,6aR)-6-((2-amino-3-fluoroquinolin-7-yl)methyl)-2-(2,4-dimethyl-7H-pyrrolo[2,3-d]pyrimidin-7-yl)hexahydro-3aH-cyclopenta[b]furan-3,3a-diol]"
7,6.4,"C[C@@]1(O)[C@@H](COc2ccc3cc(Br)c(N)nc3c2)O[C@@H](n2ccc3c(N)ncnc32)[C@@H]1O [Example 10, (2R,3S,4R,5R)-2-(((2-amino-3-bromoquinolin-7-yl)oxy)methyl)-5-(4-amino-7H-pyrrolo[2,3-d]pyrimidin-7-yl)-3-methyltetrahydrofuran-3,4-diol]"
8,7.4,"C[C@]1(COc2ccc3cc(Br)c(N)nc3c2)C[C@@H](n2ccc3c(N)ncnc32)[C@H](O)[C@@H]1O [Example 100, (1S,2R,3R,5R)-3-(((2-amino-3-bromoquinolin-7-yl)oxy)methyl)-5-(4-amino-7H-pyrrolo[2,3-d]pyrimidin-7-yl)-3-methylcyclopentane-1,2-diol]"
9,0.8,"Cc1nc(N)c2ccn([C@@H]3C[C@@H]4[C@H](Cc5ccc6cc(F)c(N)nc6c5)CC[C@]4(O)[C@H]3O)c2n1 [Example 32, (1S,2R,3aR,4S,6aR)-2-(4-amino-2-methyl-7H-pyrrolo[2,3-d]pyrimidin-7-yl)-4-((2-amino-3-fluoroquinolin-7-yl)methyl) hexahydropentalene-1,6a(1H)-diol 2,2,2-trifluoroacetate]"
10,1.7,"Nc1nc2cc(C[C@@H]3CC[C@@]4(O)[C@@H]3O[C@@H](n3ccc5c(N)nc(Cl)nc53)[C@@H]4O)ccc2cc1F [Example 48, (2R,3R,3aS,6S,6aR)-2-(4-amino-2-chloro-7H-pyrrolo[2,3-d]pyrimidin-7-yl)-6-[(2-amino-3-fluoroquinolin-7-yl)methyl]hexahydro-3aH-cyclopenta[b]furan-3,3a-diol]"
11,2.8,Nc1nc2cc(C[C@@H]3CC[C@@]4(O)[C@@H]3O[C@@H](n3ccc5c(N)ncnc53)[C@@H]4O)c(F)cc2cc1F [Example 27]
